Laboratory results from the CheMixHub ionic liquid set.
Where “and” joins values, the source holds several entries; their conditions need not be identical. Equal entries are not always repeated.

Assay: xn = mol fraction of the nth substance listed

O=C(O)CC(=O)O + CC[n+]1ccn(C)c1.[Cl-]
Settings | viscosity [mPa·s]
303.15 K, 101.33 kPa, x2 = 0.667 | 138.9

CCCCCCCCn1cc[n+](C)c1.[Br-] + O + CCCCCC[n+]1ccn(C)c1.[Br-]
electrical conductivity, 101.3 kPa
Settings | x2 = 0.8977, x1 = 0.04147 | x2 = 0.8977, x1 = 0.06092 | x2 = 0.8993, x1 = 0.02123 | x2 = 0.8993, x1 = 0.07955 | x2 = 0.9473, x1 = 0.02113 | x2 = 0.9473, x1 = 0.03155 | x2 = 0.9477, x1 = 0.01078 | x2 = 0.9477, x1 = 0.04155
293.15 K | 3.55 S/m and 3.56 S/m and 3.57 S/m | 3.41 S/m and 3.44 S/m (2×) | 3.68 S/m and 3.69 S/m | 3.3 S/m and 3.31 S/m and 3.32 S/m | 3.98 S/m and 4 S/m and 4.01 S/m | 3.83 S/m and 3.85 S/m and 3.87 S/m | 4.14 S/m (2×) and 4.16 S/m | 3.7 S/m and 3.71 S/m and 3.72 S/m
298.15 K | 4.11 S/m and 4.12 S/m | 3.95 S/m and 3.96 S/m and 3.98 S/m | 4.25 S/m and 4.26 S/m | 3.81 S/m and 3.83 S/m and 3.84 S/m | 4.56 S/m and 4.6 S/m and 4.61 S/m | 4.4 S/m and 4.44 S/m (2×) | 4.74 S/m and 4.76 S/m and 4.77 S/m | 4.25 S/m and 4.26 S/m and 4.28 S/m
303.15 K | 4.67 S/m and 4.68 S/m and 4.7 S/m | 4.51 S/m and 4.52 S/m and 4.54 S/m | 4.85 S/m (2×) and 4.86 S/m | 4.36 S/m and 4.37 S/m and 4.38 S/m | 5.21 S/m and 5.22 S/m and 5.24 S/m | 5.01 S/m and 5.03 S/m and 5.05 S/m | 5.39 S/m and 5.4 S/m and 5.42 S/m | 4.84 S/m and 4.86 S/m and 4.87 S/m

Fc1ccccn1 + Fc1cccc[nH+]1.O=S(=O)([O-])C(F)(F)F
100 kPa
Settings | electrical conductivity [S/m]
242.8 K, x1 = 0.9 | 0.096
252.7 K, x1 = 0.9 | 0.144
262.8 K, x1 = 0.5 | 0.0069
282 K, x1 = 0.95 | 0.497
282.5 K, x1 = 0.5 | 0.023
282.5 K, x1 = 0.9 | 0.576
286.9 K, x1 = 0.95 | 0.564
292.7 K, x2 = 0.01 | 0.174
301.5 K, x1 = 0.9 | 0.75

CCCC[n+]1ccn(C)c1.O=S(=O)([O-])C(F)(F)F + CS(C)=O + OCCO
viscosity [mPa·s], 100 kPa
Settings | 298.15 K | 303.15 K | 308.15 K | 313.15 K | 318.15 K | 323.15 K
x1 = 0.0301, x2 = 0.903 | 3.07 | 2.75 | 2.47 | 2.25 | 2.04 | 1.86
x1 = 0.0698, x2 = 0.8409 | 3.41 | 3.16 | 2.83 | 2.56 | 2.32 | 2.12
x1 = 0.1006, x2 = 0.7931 | 4.04 | 3.69 | 3.29 | 2.96 | 2.67 | 2.43
x1 = 0.1311, x2 = 0.7537 | 5.33 | 4.67 | 4.14 | 3.69 | 3.31 | 3
x1 = 0.1702, x2 = 0.7004 | 6.5 | 5.61 | 4.93 | 4.37 | 3.9 | 3.51
x1 = 0.2067, x2 = 0.6494 | 8.13 | 6.91 | 6.04 | 5.31 | 4.71 | 4.21
x1 = 0.2329, x2 = 0.603 | 9 | 7.8 | 6.78 | 5.95 | 5.26 | 4.68
x1 = 0.2768, x2 = 0.5373 | 11.8 | 9.8 | 8.47 | 7.38 | 6.48 | 5.74
x1 = 0.3089, x2 = 0.4851 | 13.6 | 11.2 | 9.67 | 8.39 | 7.35 | 6.48
x1 = 0.3348, x2 = 0.4441 | 15.1 | 12.1 | 10.4 | 8.97 | 7.83 | 6.89
x1 = 0.3723, x2 = 0.3876 | 17.3 | 14.2 | 12.2 | 10.5 | 9.13 | 8
x1 = 0.4022, x2 = 0.3357 | 19 | 15.7 | 13.4 | 11.5 | 10 | 8.73
x1 = 0.4355, x2 = 0.2923 | 21.3 | 17.9 | 15.1 | 13 | 11.2 | 9.82
x1 = 0.473, x2 = 0.2581 | 23.3 | 19.3 | 16.3 | 14 | 12.1 | 10.5
x1 = 0.5076, x2 = 0.2336 | 25.5 | 21.2 | 17.9 | 15.2 | 13.1 | 11.4
x1 = 0.5442, x2 = 0.2004 | 27.9 | 23.2 | 19.6 | 16.6 | 14.3 | 12.4
x1 = 0.5775, x2 = 0.1858 | 30.3 | 25.2 | 21.2 | 18 | 15.4 | 13.4
x1 = 0.6051, x2 = 0.18 | 32.5 | 26.9 | 22.6 | 19.2 | 16.4 | 14.2
x1 = 0.6226, x2 = 0.1647 | 33.8 | 27.8 | 23.3 | 19.7 | 16.9 | 14.6
x1 = 0.6651, x2 = 0.1526 | 37.8 | 31 | 26.1 | 22 | 18.8 | 16.2
x1 = 0.6961, x2 = 0.1474 | 41.2 | 33.5 | 28.2 | 23.8 | 20.3 | 17.5

CCCCCCCCn1cc[n+](C)c1.F[B-](F)(F)F + CCCCCCCCn1cc[n+](C)c1.[Cl-]
101 kPa
Settings | electrical conductivity [S/m] | viscosity [mPa·s]
303 K, x2 = 0 | 0.0817 | –
303 K, x2 = 0.8 | 0.00551 | –
303.15 K, x2 = 0 | – | 258
303.15 K, x2 = 0.4 | – | 1093
308 K, x2 = 0.8 | 0.00853 | –
313 K, x2 = 0.6 | 0.0233 | –
318 K, x2 = 0 | 0.172 | –
318 K, x2 = 0.2 | 0.106 | –
318 K, x2 = 0.6 | 0.0327 | –
318.15 K, x2 = 0.8 | – | 1486
323 K, x2 = 0.6 | 0.0452 | –
328 K, x2 = 0.2 | 0.17 | –
333 K, x2 = 0 | 0.322 | –
333.15 K, x2 = 0 | – | 61

CCCC[n+]1ccn(C)c1.O=S(=O)([O-])C(F)(F)F + Nc1ccccc1
100 kPa
Settings | viscosity [mPa·s]
288.15 K, x2 = 0 | 132.7
293.15 K, x2 = 0.3002 | 57.6
298.15 K, x2 = 0.1995 | 56.1
303.15 K, x2 = 0.3002 | 37.3
318.15 K, x2 = 0.3996 | 17.67
323.15 K, x2 = 0.3002 | 18.28
323.15 K, x2 = 0.8999 | 3.12
328.15 K, x2 = 0.8999 | 2.76
333.15 K, x2 = 0.1995 | 16.23

CCCC[n+]1ccn(C)c1.[Cl-] + NCCO
viscosity [mPa·s], 100 kPa
Settings | 293 K | 303 K | 303.1 K | 313.1 K | 333.2 K
x2 = 0.5 | – | – | 95.3 | 57 | 24.9
x2 = 0.677 | 62.3 | 37.1 | – | 24.1 | –

CCCC[n+]1ccn(C)c1.COP(=O)([O-])OC + CCO
viscosity [mPa·s], 101 kPa
Settings | 293.15 K | 298.15 K | 308.15 K | 313.15 K | 318.15 K | 323.15 K | 328.15 K | 333.15 K
x2 = 0.201 | – | – | 155.7 | – | – | – | – | –
x2 = 0.399 | 150.9 | 114.4 | – | 55.65 | 45.2 | 37.08 | 30.89 | 25.94
x2 = 0.8 | – | – | 5.933 | 5.272 | – | 4.227 | 3.811 | –
